Legend:
ZEAMX: corn (Zea mays) = test: Post-Emergent Test I herbicidal activity; format: in vivo; details: Zea mays, post-emergence, 336 h, read-out: Visual Growth Reduction (%)-14 Days after Application ZEAMX; for pest or weed control at 70 g/ha: Table 3, 70 g ai/ha; for pest or weed control at 140 g/ha: Table 3, 140 g ai/ha; for pest or weed control at 280 g/ha: Table 3, 280 g ai/ha
Outline: (§1)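 Visual injury ratings (0 = none, 100 = complete kill) taken 14 d after treatment, compared with untreated plants, feed probit-derived GR20/GR50/GR80. Application: overhead spray, 187 L/ha, highest rate and ½×-1/16× dilutions in acetone-DMSO-based aqueous spray mix with crop oil and surfactant, onto plants grown 7-21 d to first or second true leaf.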

[1] = tested on: ORYSA: rice (Oryza sativa); test: Post-Emergent Test I herbicidal activity; format: in vivo; details: post-emergence, 336 h, read-out: Visual Growth Reduction (%)-14 Days after Application ORYSA; for pest or weed control at 70 g/ha: Table 3, 70 g ai/ha; for pest or weed control at 140 g/ha: Table 3, 140 g ai/ha; for pest or weed control at 280 g/ha: Table 3, 280 g ai/ha
Outline: (§2)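 Foliar spray, 187 L/ha, track sprayer; plants at 1st–2nd true leaf, 7–21 d old. Carrier: acetone/DMSO + aqueous acetone/IPA/crop oil/Triton X-155; high rate plus ½×–1/16× dilutions. Subirrigated; visual % injury vs untreated at 14 d.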

[2] = tested on: CHEAL: lambsquarters (Chenopodium album); test: Post-Emergent Test I herbicidal activity; format: in vivo; details: Chenopodium album, post-emergence, 336 h, read-out: Visual Growth Reduction (%)-14 Days after Application CHEAL; for pest or weed control at 70 g/ha: Table 3, 70 g ai/ha; for pest or weed control at 140 g/ha: Table 3, 140 g ai/ha; for pest or weed control at 280 g/ha: Table 3, 280 g ai/ha
Outline: as §1

[3] = tested on: CYPES: yellow nutsedge (Cyperus esculentus); test: Post-Emergent Test I herbicidal activity; format: in vivo; details: post-emergence, 336 h, read-out: Visual Growth Reduction (%)-14 Days after Application CYPES; for pest or weed control at 70 g/ha: Table 3, 70 g ai/ha; for pest or weed control at 140 g/ha: Table 3, 140 g ai/ha; for pest or weed control at 280 g/ha: Table 3, 280 g ai/ha
Outline: as §1

[4] = tested on: ECHCG: barnyardgrass (Echinochloa crus-galli); test: Post-Emergent Test I herbicidal activity; format: in vivo; details: post-emergence, 336 h, read-out: Visual Growth Reduction (%)-14 Days after Application ECHCG; for pest or weed control at 70 g/ha: Table 3, 70 g ai/ha; for pest or weed control at 140 g/ha: Table 3, 140 g ai/ha
Outline: as §2

[5] = tested on: ABUTH: velvetleaf (Abutilon theophrasti); test: Post-Emergent Test I herbicidal activity; format: in vivo; details: Abutilon theophrasti, post-emergence, 336 h, read-out: Visual Growth Reduction (%)-14 Days after Application ABUTH; for pest or weed control at 70 g/ha: Table 3, 70 g ai/ha; for pest or weed control at 140 g/ha: Table 3, 140 g ai/ha; for pest or weed control at 280 g/ha: Table 3, 280 g ai/ha
Outline: as §1

[6] = tested on: EPHHL: wild poinsettia (Euphorbia heterophylla); test: Post-Emergent Test I herbicidal activity; format: in vivo; details: post-emergence, 336 h, read-out: Visual Growth Reduction (%)-14 Days after Application EPHHL; for pest or weed control at 70 g/ha: Table 3, 70 g ai/ha; for pest or weed control at 140 g/ha: Table 3, 140 g ai/ha; for pest or weed control at 280 g/ha: Table 3, 280 g ai/ha
Outline: as §1

SMILES	melting point [°C]	pest or weed control at 140 g/ha (ZEAMX: corn (Zea mays)) [%]	pest or weed control at 140 g/ha [1] [%]	pest or weed control at 140 g/ha [2] [%]	pest or weed control at 140 g/ha [3] [%]	pest or weed control at 140 g/ha [4] [%]	pest or weed control at 140 g/ha [5] [%]	pest or weed control at 140 g/ha [6] [%]	other results
COc1c(C(=O)O)nc(-c2ccc(Cl)c(F)c2F)c(F)c1N [Compound 48]	151	80	0	100	100	90	90	100	
COc1c(C(=O)O)nc(-c2ccc(C(F)(F)F)cc2)c(F)c1N [Compound 50]	135 to 137	75	30	90	100	70	90	100	
CCc1nc(C(=O)O)c(OC)c(N)c1F [Compound 58]	148.5 to 150.5								pest or weed control at 280 g/ha (ZEAMX: corn (Zea mays)): 10%; pest or weed control at 280 g/ha [1]: 0%; pest or weed control at 280 g/ha [2]: 80%; pest or weed control at 280 g/ha [3]: 0%; pest or weed control at 280 g/ha ([4]; Table 3, 280 g ai/ha): 0%; pest or weed control at 280 g/ha [5]: 60%; pest or weed control at 280 g/ha [6]: 65%
COc1c(C(=O)O)nc(-c2ccc(F)cc2)c(F)c1N [Compound 52]	149 to 151	50	0	100	100	60		100	
CNc1cc(-c2ccc(Cl)cc2)nc(C(=O)OC)c1N [Compound 86, Methyl 3-amino-6-(4-chlorophenyl)-4-(methylamino)picolinate]	178 to 200								pest or weed control at 280 g/ha (ZEAMX: corn (Zea mays)): 0%; pest or weed control at 280 g/ha [1]: 0%; pest or weed control at 280 g/ha [2]: 95%; pest or weed control at 280 g/ha [3]: 0%; pest or weed control at 280 g/ha [5]: 40%; pest or weed control at 280 g/ha [6]: 50%

Further lines, with some results ahead:

melting point [°C]	SMILES	pest or weed control at 140 g/ha (ZEAMX: corn (Zea mays)) [%]	pest or weed control at 140 g/ha [1] [%]	pest or weed control at 140 g/ha [2] [%]	pest or weed control at 140 g/ha [3] [%]	pest or weed control at 140 g/ha [4] [%]	pest or weed control at 140 g/ha [5] [%]	pest or weed control at 140 g/ha [6] [%]	other results
116 to 118	COC(=O)c1nc(-c2cc(F)c(Br)cc2F)c(F)c(N)c1OC [Compound 20]								pest or weed control at 70 g/ha (ZEAMX: corn (Zea mays)): 80%; pest or weed control at 70 g/ha [1]: 0%; pest or weed control at 70 g/ha [2]: 100%; pest or weed control at 70 g/ha [3]: 50%; pest or weed control at 70 g/ha [4]: 80%; pest or weed control at 70 g/ha [5]: 85%; pest or weed control at 70 g/ha [6]: 100%
127 to 129	COC(=O)c1nc(-c2cc(F)c(I)cc2F)c(F)c(N)c1OC [Compound 25]	70	0	90	100	85	70	100	
109 to 110	COC(=O)c1nc(-c2ccc(Cl)c(F)c2)c(F)c(N)c1OC [Compound 32]	75	0	100	100	90	95	100	
93 to 94	COC(=O)c1nc(-c2ccc(Cl)cc2)c(F)c(N)c1OC [Compound 31, methyl 4-amino-6-(4-chlorophenyl)-5-fluoro-3-methoxypicolinate]	85	15	100	100	95	100	100	
120 to 123	COC(=O)c1nc(-c2cc(F)c(Cl)cc2F)c(F)c(N)c1OC [Compound 39]								pest or weed control at 70 g/ha (ZEAMX: corn (Zea mays)): 75%; pest or weed control at 70 g/ha [1]: 0%; pest or weed control at 70 g/ha [2]: 100%; pest or weed control at 70 g/ha [3]: 100%; pest or weed control at 70 g/ha [4]: 80%; pest or weed control at 70 g/ha [5]: 80%; pest or weed control at 70 g/ha [6]: 100%

— patent US9518018B2, “3-alkoxy, thioalkyl and amino-4-amino-6-(substituted)picolinates and their use as herbicides” (Dow AgroSciences LLC, priority 2011, dated 2016)
